Assay results as given in patent US9206156B2, “Substituted indole derivatives” (GRÜNENTHAL GMBH, priority 2008, dated 2015).

Experiments:
human μ-opiate receptor = target: T1, human μ-opiate receptor (Homo sapiens, UniProt P35372); test: μ-opiate receptor binding assay with [3H] naloxone (WGA-SPA beads); details: 1 μmol/l test substance, 1 nmol/l [3H] naloxone, CHO-K1 cell membranes expressing human μ-opiate receptor
T1 construct: purchased NEN, Zaventem, Belgium RB-HOM; host or cells: CHO-K1 cells (membrane preparation)
T1 sequence (P35372 whole entry): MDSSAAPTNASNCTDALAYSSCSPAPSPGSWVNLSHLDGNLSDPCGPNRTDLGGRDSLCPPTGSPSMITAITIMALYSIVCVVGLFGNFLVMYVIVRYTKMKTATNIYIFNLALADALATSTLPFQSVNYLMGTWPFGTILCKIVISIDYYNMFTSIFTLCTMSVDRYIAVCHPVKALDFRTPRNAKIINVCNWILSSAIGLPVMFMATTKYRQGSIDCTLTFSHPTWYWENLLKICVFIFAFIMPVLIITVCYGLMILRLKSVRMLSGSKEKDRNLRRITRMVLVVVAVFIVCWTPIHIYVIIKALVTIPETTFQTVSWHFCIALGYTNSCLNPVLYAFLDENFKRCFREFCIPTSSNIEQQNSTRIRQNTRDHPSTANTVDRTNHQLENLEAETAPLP
Procedure: The receptor affinity to the human μ-opiate receptor was determined in a homogeneous batch in microtitre plates. To this end, dilution series of the substituted indole derivative to be tested were incubated for 90 minutes at room temperature with a receptor membrane preparation (15-40 μg protein per 250 μl incubation batch) of CHO-K1 cells, which express the human μ-opiate receptor (RB—HOM receptor membrane preparation from NEN, Zaventem, Belgium), in the presence of 1 nmol/l of the radioactive ligand [^3H] naloxone (NET719, NEN, Zaventem, Belgium) and 1 mg of WGA-SPA beads (wheat germ agglutinin SPA beads from Amersham/Pharmacia, Freiburg, Germany) in a total volume of 250 μl. 50 mmol/l tris-HCl supplemented with 0.05 wt. % sodium azide and 0.06 wt. % bovine serum albumin were used as the incubation buffer. In order to determine the non-specific binding, 25 μmol/l of naloxone were also added. At the end of the ninety-minute incubation period the microtitre plates were centrifuged for 20 minutes at 1000 g and the radioactivity was measured in a β counter (Microbeta-Trilux, PerkinElmer Wallac, Freiburg, Germany). The percentage displacement of the radioactive ligand from its binding to the human μ-opiate receptor was determined at a test substance concentration of 1 μmol/l and stated as the percentage inhibition (% inhibition) of the specific binding. In some cases the percentage displacement due to differing concentrations of the compounds having the general formula I to be tested was used to calculate the IC50 inhibition concentrations which bring about a 50-percent displacement of the radioactive ligand. Ki values for the test substances were obtained by extrapolation using the Cheng-Prusoff equation.

ORL1 receptor = target: T2, ORL1 receptor (Homo sapiens, UniProt P41146); test: ORL1 receptor binding assay with 3H-nociceptin/orphanin FQ (WGA-SPA beads); details: c=1 μM test substance; 0.5 nM 3H-nociceptin/orphanin FQ; membranes of recombinant CHO-ORL1 cells
T2 construct: expressed in transfected cells; host or cells: CHO (recombinant CHO-ORL1 cells), membranes
T2 sequence (P41146 whole entry): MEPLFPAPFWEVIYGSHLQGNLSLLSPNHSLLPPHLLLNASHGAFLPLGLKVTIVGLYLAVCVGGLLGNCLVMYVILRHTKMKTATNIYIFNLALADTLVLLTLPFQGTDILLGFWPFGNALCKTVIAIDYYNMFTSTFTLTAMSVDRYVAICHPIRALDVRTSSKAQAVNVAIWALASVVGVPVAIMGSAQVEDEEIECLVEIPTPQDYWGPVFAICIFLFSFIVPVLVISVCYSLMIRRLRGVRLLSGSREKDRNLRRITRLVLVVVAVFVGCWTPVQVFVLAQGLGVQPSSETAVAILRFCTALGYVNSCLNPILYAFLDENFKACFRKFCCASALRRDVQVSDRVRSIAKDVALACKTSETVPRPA
Procedure: Measurement of ORL1 Binding
The cyclohexane derivatives having the general formula I were investigated in a receptor binding assay with ^3H-nociceptin/orphanin FQ with membranes of recombinant CHO—ORL1 cells. This test system was conducted in accordance with the method described by Ardati et al. (Mol. Pharmacol., 51, 1997, p. 816-824). The concentration of ^3H-nociceptin/orphanin FQ in these tests was 0.5 nM. The binding assays were carried out with 20 μg amounts of membrane protein per 200 μl batch in 50 mM Hepes, pH 7.4, 10 mM MgCl2 and 1 mM EDTA. The binding to the ORL1 receptor was determined using 1 mg amounts of WGA-SPA beads (Amersham-Pharmacia, Freiburg, Germany), by incubation of the batch for one hour at room temperature and subsequent measurement in a Trilux scintillation counter (Wallac, Finland). The affinity is given in Table 1 as the nanomolar Ki value or in % inhibition at c=1 μM.

With `Cc1[nH]c2ccccc2c1CNC(CC(=O)N1CCC(c2cccs2)(N(C)C)CC1)c1ccccc1` (centres unmarked) [Example 168, 1-(4-(dimethylamino)-4-(thiophen-2-yl)piperidin-1-yl)-3-((2-methyl-1H-indol-3-yl)methylamino)-3-phenylpropan-1-one] the inhibition at 1 µM (human μ-opiate receptor) was 92% and the inhibition at 1 µM (ORL1 receptor) was 73%.
`CN(C)C1(c2cccs2)CCN(CCNC(=O)c2cccc3c2ccn3C)CC1` [Example 10, N-(2-(4-(Dimethylamino)-4-(thiophen-2-yl)piperidin-1-yl)ethyl)-1-methyl-1H-indole-4-carboxamide] showed an inhibition at 1 µM (human μ-opiate receptor) of 99% and an inhibition at 1 µM (ORL1 receptor) of 56%.
With `CN(C)C1(c2cccs2)CCN(C(=O)CNC(=O)c2cccc3c2ccn3C)CC1` [Example 135, N-(2-(4-(dimethylamino)-4-(thiophen-2-yl)piperidin-1-yl)-2-oxoethyl)-1-methyl-1H-indole-4-carboxamide] the inhibition at 1 µM (human μ-opiate receptor) was 61% and the inhibition at 1 µM (ORL1 receptor) was 27%.
Work on `CN(C(=O)c1ccc2ccn(C)c2c1)C(C(=O)N1CCC(c2cccs2)(N(C)C)CC1)c1ccccc1` (centres unmarked) [Example 111, N-(2-(4-(dimethylamino)-4-(thiophen-2-yl)piperidin-1-yl)-2-oxo-1-phenylethyl)-N,1-dimethyl-1H-indole-6-carboxamide] yielded an inhibition at 1 µM (human μ-opiate receptor) of 82% and an inhibition at 1 µM (ORL1 receptor) of 60%.
Work on `CN(C)C1(c2ccccc2)CCN(C(=O)C2CCCN(C(=O)C3CCCc4c3[nH]c3ccc(Cl)cc43)C2)CC1` (centres unmarked) [Example 103, (6-chloro-2,3,4,9-tetrahydro-1H-carbazol-1-yl)(3-(4-(dimethylamino)-4-phenylpiperidine-1-carbonyl)piperidin-1-yl)methanone] yielded an inhibition at 1 µM (human μ-opiate receptor) of 35% and an inhibition at 1 µM (ORL1 receptor) of 65%.
Compound `CC(C)C(C(=O)N1CCC(c2ccccc2)(N(C)C)CC1)N(C)C(=O)CCc1c[nH]c2ccccc12` (centres unmarked) [Example 94, N-(1-(4-(dimethylamino)-4-phenylpiperidin-1-yl)-3-methyl-1-oxobutan-2-yl)-3-(1H-indol-3-yl)-N-methylpropanamide] has an inhibition at 1 µM (human μ-opiate receptor) of 71% and an inhibition at 1 µM (ORL1 receptor) of 82%.
In the case of `CN(C)C1(c2ccccc2)CCN(C(=O)CCNCc2cccc3cc[nH]c23)CC1` [Example 171, 3-((1H-indol-7-yl)methylamino)-1-(4-(dimethylamino)-4-phenylpiperidin-1-yl)propan-1-one], the inhibition at 1 µM (human μ-opiate receptor) is reported as 97% and the inhibition at 1 µM (ORL1 receptor) is reported as 73%.
`CN(C)C1(c2ccccc2)CCN(C(=O)C2CCCN(C(=O)CCc3cn(C)c4ccccc34)C2)CC1` (centres unmarked) [Example 133, 1-(3-(4-(dimethylamino)-4-phenylpiperidine-1-carbonyl)piperidin-1-yl)-3-(1-methyl-1H-indol-3-yl)propan-1-one] gave an inhibition at 1 µM (human μ-opiate receptor) of 71% and an inhibition at 1 µM (ORL1 receptor) of 32%.
With `CN(C)c1ccc2cc(C(=O)NCCC(=O)N3CCC(c4ccccc4)(N(C)C)CC3)[nH]c2c1` [Example 120, 6-(dimethylamino)-N-(3-(4-(dimethylamino)-4-phenylpiperidin-1-yl)-3-oxopropyl)-1H-indole-2-carboxamide] the inhibition at 1 µM (human μ-opiate receptor) was 60% and the inhibition at 1 µM (ORL1 receptor) was 45%.
In the case of `CCCCC1(N(C)C)CCN(CCN(C)C(=O)CC(C)c2c[nH]c3ccccc23)CC1` (centres unmarked) [Example 58, N-(2-(4-Butyl-4-(dimethylamino)piperidin-1-yl)ethyl)-3-(1H-indol-3-yl)-N-methylbutanamide], the inhibition at 1 µM (human μ-opiate receptor) is reported as 77% and the inhibition at 1 µM (ORL1 receptor) is reported as 20%.
In the case of `CN(C)C1(c2ccccc2)CCN(C(=O)CCNC(=O)c2ccc3cc[nH]c3c2)CC1` [Example 113, N-(3-(4-(dimethylamino)-4-phenylpiperidin-1-yl)-3-oxopropyl)-1H-indole-6-carboxamide], the inhibition at 1 µM (human μ-opiate receptor) is reported as 89% and the inhibition at 1 µM (ORL1 receptor) is reported as 57%.
`CN(CCN1CCC(c2ccccc2)(N(C)C)CC1)C(=O)CCc1cn(C)c2ccccc12` [Example 14, N-(2-(4-(Dimethylamino)-4-phenylpiperidin-1-yl)ethyl)-N-methyl-3-(1-methyl-1H-indol-3-yl)propanamide] showed an inhibition at 1 µM (human μ-opiate receptor) of 73% and an inhibition at 1 µM (ORL1 receptor) of 48%.
With `Cc1c(CNCCN2CCC(c3cccs3)(N(C)C)CC2)c2ccccc2n1C` [Example 80, 1-(2-((1,2-Dimethyl-1H-indol-3-yl)methylamino)ethyl)-N,N-dimethyl-4-(thiophen-2-yl)pipendin-4-amine] the inhibition at 1 µM (human μ-opiate receptor) was 101% and the inhibition at 1 µM (ORL1 receptor) was 97%.
In the case of `CN(CCN1CCC(c2ccccc2)(N(C)C)CC1)Cc1cccc2[nH]ccc12` [Example 194, 1-(2-(((1H-indol-4-yl)methyl)(methy)amino)ethyl)-N,N-dimethyl-4-phenylpiperidin-4-amine], the “% Inhibition (μ) at 1 μM” value (human μ-opiate receptor) is reported as 99% and the “% Inhibition (ORL1) at 1 μM” value (ORL1 receptor) is reported as 56%.
With `CN(CCN1CCC(c2ccccc2)(N(C)C)CC1)Cc1c(-c2ccccc2)[nH]c2ccccc12` [Example 71, N,N-Dimethyl-1-(2-(methyl((2-phenyl-1H-indol-3-yl)methyl)amino)ethyl)-4-phenylpipendin-4-amine] the inhibition at 1 µM (human μ-opiate receptor) was 96% and the inhibition at 1 µM (ORL1 receptor) was 83%.
For `CN(CCN1CCC(c2ccccc2)(N(C)C)CC1)C(=O)c1cc2cc(F)ccc2[nH]1` [Example 16, N-(2-(4-(Dimethylamino)-4-phenylpiperidin-1-yl)ethyl)-5-fluoro-N-methyl-1H-indole-2-carboxamide], the inhibition at 1 µM (human μ-opiate receptor) was 94% and the inhibition at 1 µM (ORL1 receptor) was 89%.
`CN(CCN1CCC(c2ccccc2)(N(C)C)CC1)C(=O)c1ccc2ccn(C)c2c1` [Example 119, N-(2-(4-(dimethylamino)-4-phenylpiperidin-1-yl)ethyl)-N,1-dimethyl-1H-indole-6-carboxamide] gave an inhibition at 1 µM (human μ-opiate receptor) of 95% and an inhibition at 1 µM (ORL1 receptor) of 45%.
Compound `Cc1[nH]c2ccccc2c1CN1CCCC(C(=O)N2CCC(c3ccccc3)(N(C)C)CC2)C1` (centres unmarked) [Example 156, (4-(dimethylamino)-4-phenylpiperidin-1-yl)(1-((2-methyl-1H-indol-3-yl)methyl)piperidin-3-yl) methanone] has an inhibition at 1 µM (human μ-opiate receptor) of 57% and an inhibition at 1 µM (ORL1 receptor) of 39%.
For `CN(CCN1CCC(c2ccccc2)(N2CCCC2)CC1)C(=O)Cc1c[nH]c2cc(F)ccc12` [Example 36, 2-(6-Fluoro-1H-indol-3-yl)-N-methyl-N-(2-(4-phenyl-4-(pyrrolidin-1-yl)piperidin-1-yl)ethyl)acetamide], the inhibition at 1 µM (human μ-opiate receptor) was 62% and the inhibition at 1 µM (ORL1 receptor) was 31%.
`COc1ccc2[nH]cc(CN(C)CCN3CCC(c4ccccc4)(N(C)C)CC3)c2c1` [Example 75, 1-(2-(((5-Methoxy-1H-indol-3-yl)methyl)(methyl)amino)ethyl)-N,N-dimethyl-4-phenylpiperidin-4-amine] was tested, and the “% Inhibition (μ) at 1 μM” value (human μ-opiate receptor) was 97% and the “% Inhibition (ORL1) at 1 μM” value (ORL1 receptor) was 79%.
Compound `CC(C)C(CC(=O)N(C)CCCN1CCC(c2cccs2)(N(C)C)CC1)c1c[nH]c2ccccc12` (centres unmarked) [Example 23, N-(3-(4-(Dimethylamino)-4-(thiophen-2-yl)piperidin-1-yl)propyl)-3-(1H-indol-3-yl)-N,4-dimethylpentanamide] has an inhibition at 1 µM (human μ-opiate receptor) of 86% and an inhibition at 1 µM (ORL1 receptor) of 53%.
In the case of `COc1ccc2[nH]cc(CN(C)CCN3CCC(c4ccccc4)(N(C)C)CC3)c2c1` [Example 191, 1-(2-(((5-methoxy-1H-indol-3-yl)methyl)(methyl)amino)ethyl)-N,N-dimethyl-4-phenylpiperidin-4-amine], the “% Inhibition (μ) at 1 μM” value (human μ-opiate receptor) is reported as 96% and the “% Inhibition (ORL1) at 1 μM” value (ORL1 receptor) is reported as 80%.
In the case of `Cc1c(CN(C)CCCN2CCC(c3cccs3)(N(C)C)CC2)c2ccccc2n1C` [Example 81, 1-(3-(((1,2-Dimethyl-1H-indol-3-yl)methyl)(methyl)amino)propyl)-N,N-dimethyl-4-(thiophen-2-yl)piperidin-4-amine], the inhibition at 1 µM (human μ-opiate receptor) is reported as 100% and the inhibition at 1 µM (ORL1 receptor) is reported as 98%.
For `CN(CCN1CCC(c2ccccc2)(N(C)C)CC1)Cc1cccc2[nH]ccc12` [Example 195, 1-(2-(((1H-indol-4-yl)methyl)(methy)amino)ethyl)-N,N-dimethyl-4-phenylpiperidin-4-amine], the “% Inhibition (μ) at 1 μM” value (human μ-opiate receptor) was 78% and the “% Inhibition (ORL1) at 1 μM” value (ORL1 receptor) was 56%.
Work on `COc1ccc2[nH]cc(CNCCN3CCC(c4cccs4)(N(C)C)CC3)c2c1` [Example 188, 1-(2-((5-methoxy-1H-indol-3-yl)methylamino)ethyl)-N,N-dimethyl-4-(thiophen-2-yl)piperidin-4-amine] yielded an inhibition at 1 µM (human μ-opiate receptor) of 99% and an inhibition at 1 µM (ORL1 receptor) of 85%.
